# Patent publication US7846697B2, “Method of producing a low molecular weight organic compound in a cell” (BLMaps, priority 2003, dated 2010)
# Experiments:
# [1] = system: E. coli strain KO1418 transformants; assay: Toxicity of vanillin with IPTG-induced expression of UGT85B1 or AS, growth on plates; assay type: cell-based
# Protocol: (§1) The E. coli strains TOP10, JM109, and KO1418 were all transformed with the constructed plasmids pJH401, pJH402, pJH411 and pJH412, and pKK223-3 as control, employing standard transformation protocols. Transformants were selected for ampicilin resistance, and two transformants of each E. coli strain with each plasmid were kept for expression experiments. The E. coli transformants were inoculated from plate cultures into 2 ml liquid growth medium (LB medium containing ampicilin at 100 μg/ml), and allowed to grow for 20 hours at 37° C. The precultures were diluted 100 times 10^4 times and 10^6 times in growth medium, and 4 μl droplets of these cell suspensions were applied to the surface of Petri dishes containing solid LB-ampicilin medium containing varying concentrations of vanillin (based on the STV determinations described above), and without or with (to induce gene expression) 1 mM isopropyl thiogalactoside (IPTG). The plates were incubated at 37° C. for 24 hours, after which growth on the various concentrations of vanillin was monitored and recorded.
# [2] = system: E. coli strain JM109 transformants; assay: as above; assay type: cell-based
# Protocol: as §1
# [3] = system: E. coli strain JM109 transformants; assay: Toxicity of vanillin with constitutive expression of UGT85B1 or AS, growth on plates; assay type: cell-based
# Source text: For experimentation with constitutive expression of UGT85B1 and AS, the E. coli strains JM109, and K01418 were transformed with the constructed plasmids pJH 430, pJH431, pJH432, pJH433, pJH434, pJH435, pJH436, pJH437, pJH438, pJH439, pJH440, and pJH441, and pKOL30 as control, employing standard transformation protocols. Transformants were selected for ampicilin resistance, and two transformants of each E. coli strain with each plasmid were kept for expression experiments. The E. coli transformants were inoculated from plate cultures into 2 ml liquid growth medium (LB medium containing ampicilin at 100 μg/ml), and allowed to grow for 20 hours at 37° C. The precultures were diluted 100 times 10^4 times and 10^6 times in growth medium, and 4 μl droplets of these cell suspensions were applied to the surface of Petri dishes containing solid LB-ampicilin medium containing varying concentrations of vanillin (based on the STV determinations described above). The plates were incubated at 37° C. for 24 hours, after which growth on the various concentrations of vanillin was monitored and recorded.
# [4] = system: E. coli strain JM109 transformants; assay: Toxicity of vanillin with IPTG-induced expression of UGT85B1 or AS, growth on plates; assay type: cell-based; conditions: JM109 [pJH410], IPTG induction No; note: key: −: No growth; +: weak growth; ++: good growth
# [5] = system: microorganisms; conditions: Pfeifer et al, 1984; cited from earlier work
# [6] = system: E. coli strain JM109; assay: Vanillin sensitivity (STV) on solid LB growth medium; assay type: cell-based; conditions: no growth at 1/10000 dilution, growth at 1/100 severely inhibited, 24 hours
# Protocol: (§2) The three different E. coli strains TOP10, JM109, and KO1418 were grown for 18 hours in the appropriate media, after which serial dilutions in growth medium (dilution factors 1, 1/100, 1/10000 and 1/1000000) were made. Droplets of these cell suspensions were applied to Petri dishes containing solid LB growth medium with various concentrations of vanillin, and the plates were incubated at the appropriate growth temperature for 24 hours (E. coli), after which they were photographed. […] This number constituted the STV (Sensitivity To Vanillin) level. The STV numbers for the different microorganisms studied can be seen in Table 9.1.
# [7] = system: E. coli strain TOP10; assay: as above; assay type: cell-based; conditions: no growth at 1/10000 dilution, growth at 1/100 severely inhibited, 24 hours
# Protocol: as §2
# [8] = system: E. coli strain KO1418; assay: as above; assay type: cell-based; conditions: no growth at 1/10000 dilution, growth at 1/100 severely inhibited, 24 hours
# Protocol: as §2
# [9] = system: E. coli strain KO1418 transformants; assay: Toxicity of vanillin with IPTG-induced expression of UGT85B1 or AS, growth on plates; assay type: cell-based; parameters: key: −: No growth; +: weak growth; ++: good growth; conditions: KO1418 [pJH410]
structure (smiles),measurement,setting,value
"COc1cc(C=O)ccc1O [Vanillin, vanillin]",growth,"[1]; KO1418 [pJH401], 0.08% vanillin, IPTG induction No",++
same,growth,"[1]; KO1418 [pJH401], 0.08% vanillin, IPTG induction Yes",++
same,growth,"[1]; KO1418 [pJH401], 0.12% vanillin, IPTG induction No",++
same,growth,"[1]; KO1418 [pJH401], 0.12% vanillin, IPTG induction Yes",++
same,growth,"[1]; KO1418 [pJH401], 0.16% vanillin, IPTG induction No",−
same,growth,"[1]; KO1418 [pJH401], 0.16% vanillin, IPTG induction Yes",++
same,growth,"[1]; KO1418 [pJH401], 0.2% vanillin, IPTG induction No",−
same,growth,"[1]; KO1418 [pJH401], 0.2% vanillin, IPTG induction Yes",−
same,growth,"[1]; KO1418 [pJH402], 0.08% vanillin, IPTG induction No",++
same,growth,"[1]; KO1418 [pJH402], 0.08% vanillin, IPTG induction Yes",++
same,growth,"[1]; KO1418 [pJH402], 0.12% vanillin, IPTG induction No",++
same,growth,"[1]; KO1418 [pJH402], 0.12% vanillin, IPTG induction Yes",++
same,growth,"[1]; KO1418 [pJH402], 0.16% vanillin, IPTG induction No",+
same,growth,"[1]; KO1418 [pJH402], 0.16% vanillin, IPTG induction Yes",++
same,growth,"[1]; KO1418 [pJH402], 0.2% vanillin, IPTG induction No",−
same,growth,"[1]; KO1418 [pJH402], 0.2% vanillin, IPTG induction Yes",−
same,growth,"[1]; KO1418 [pJH410], 0.08% vanillin, IPTG induction No",++
same,growth,"[1]; KO1418 [pJH410], 0.12% vanillin, IPTG induction Yes",++
same,growth,"[1]; KO1418 [pJH410], 0.16% vanillin, IPTG induction No",++
same,growth,"[1]; KO1418 [pJH410], 0.16% vanillin, IPTG induction Yes",++
same,growth,"[1]; KO1418 [pJH410], 0.2% vanillin, IPTG induction No",−
same,growth,"[1]; KO1418 [pKK223-3], 0.08% vanillin, IPTG induction No",++
same,growth,"[1]; KO1418 [pKK223-3], 0.08% vanillin, IPTG induction Yes",++
same,growth,"[1]; KO1418 [pKK223-3], 0.12% vanillin, IPTG induction No",++
same,growth,"[1]; KO1418 [pKK223-3], 0.12% vanillin, IPTG induction Yes",++
same,growth,"[1]; KO1418 [pKK223-3], 0.16% vanillin, IPTG induction No",−
same,growth,"[1]; KO1418 [pKK223-3], 0.16% vanillin, IPTG induction Yes",++
same,growth,"[1]; KO1418 [pKK223-3], 0.2% vanillin, IPTG induction No",−
same,growth,"[1]; KO1418 [pKK223-3], 0.2% vanillin, IPTG induction Yes",−
same,growth,"[2]; JM109 [pJH401], 0.08% vanillin, IPTG induction No",++
same,growth,"[2]; JM109 [pJH401], 0.08% vanillin, IPTG induction Yes",++
same,growth,"[2]; JM109 [pJH401], 0.12% vanillin, IPTG induction No",++
same,growth,"[2]; JM109 [pJH401], 0.12% vanillin, IPTG induction Yes",++
same,growth,"[2]; JM109 [pJH401], 0.16% vanillin, IPTG induction No",−
same,growth,"[2]; JM109 [pJH401], 0.16% vanillin, IPTG induction Yes",−
same,growth,"[2]; JM109 [pJH401], 0.2% vanillin, IPTG induction No",−
same,growth,"[2]; JM109 [pJH401], 0.2% vanillin, IPTG induction Yes",−
same,growth,"[2]; JM109 [pJH402], 0.08% vanillin, IPTG induction No",++
same,growth,"[2]; JM109 [pJH402], 0.08% vanillin, IPTG induction Yes",++
same,growth,"[2]; JM109 [pJH402], 0.12% vanillin, IPTG induction No",++
same,growth,"[2]; JM109 [pJH402], 0.12% vanillin, IPTG induction Yes",++
same,growth,"[2]; JM109 [pJH402], 0.16% vanillin, IPTG induction No",+
same,growth,"[2]; JM109 [pJH402], 0.16% vanillin, IPTG induction Yes",++
same,growth,"[2]; JM109 [pJH402], 0.2% vanillin, IPTG induction No",−
same,growth,"[2]; JM109 [pJH402], 0.2% vanillin, IPTG induction Yes",−
same,growth,"[2]; JM109 [pJH410], 0.08% vanillin, IPTG induction Yes",++
same,growth,"[2]; JM109 [pJH410], 0.12% vanillin, IPTG induction No",++
same,growth,"[2]; JM109 [pJH410], 0.12% vanillin, IPTG induction Yes",++
same,growth,"[2]; JM109 [pJH410], 0.16% vanillin, IPTG induction No",++
same,growth,"[2]; JM109 [pJH410], 0.16% vanillin, IPTG induction Yes",+
same,growth,"[2]; JM109 [pJH410], 0.2% vanillin, IPTG induction Yes",−
same,growth,"[2]; JM109 [pKK223-3], 0.08% vanillin, IPTG induction No",++
same,growth,"[2]; JM109 [pKK223-3], 0.08% vanillin, IPTG induction Yes",++
same,growth,"[2]; JM109 [pKK223-3], 0.12% vanillin, IPTG induction No",++
same,growth,"[2]; JM109 [pKK223-3], 0.12% vanillin, IPTG induction Yes",++
same,growth,"[2]; JM109 [pKK223-3], 0.16% vanillin, IPTG induction No",−
same,growth,"[2]; JM109 [pKK223-3], 0.16% vanillin, IPTG induction Yes",−
same,growth,"[2]; JM109 [pKK223-3], 0.2% vanillin, IPTG induction No",−
same,growth,"[2]; JM109 [pKK223-3], 0.2% vanillin, IPTG induction Yes",−
same,growth,"[3]; JM109 [pJH430], 0.08% vanillin",+++
same,growth,"[3]; JM109 [pJH430], 0.12% vanillin",+++
same,growth,"[3]; JM109 [pJH430], 0.16% vanillin",++
same,growth,"[3]; JM109 [pJH431], 0.08% vanillin",+++
same,growth,"[3]; JM109 [pJH431], 0.12% vanillin",+++
same,growth,"[3]; JM109 [pJH431], 0.16% vanillin",++
same,growth,"[3]; JM109 [pJH432], 0.08% vanillin",+++
same,growth,"[3]; JM109 [pJH432], 0.12% vanillin",+++
same,growth,"[3]; JM109 [pJH432], 0.16% vanillin",+
same,growth,"[3]; JM109 [pJH433], 0.08% vanillin",+++
same,growth,"[3]; JM109 [pJH433], 0.12% vanillin",+++
same,growth,"[3]; JM109 [pJH433], 0.16% vanillin",+
same,growth,"[3]; JM109 [pKOL30], 0.08% vanillin",+++
same,growth,"[3]; JM109 [pKOL30], 0.12% vanillin",++
same,growth,"[3]; JM109 [pKOL30], 0.16% vanillin",−
same,growth,[4]; 0.08% vanillin,++
same,growth,[4]; 0.2% vanillin,−
same,concentration in the medium at which it acts as a strong growth inhibitor,[5],5 g/L
same,STV (Sensitivity To Vanillin) level,[6],0.14 % (w/v)
same,STV (Sensitivity To Vanillin) level,[7],0.12 % (w/v)
same,STV (Sensitivity To Vanillin) level,[8],0.18 % (w/v)
same,growth,"[9]; 0.08% vanillin, IPTG induction Yes",++
same,growth,"[9]; 0.12% vanillin, IPTG induction No",++
same,growth,"[9]; 0.2% vanillin, IPTG induction Yes",++
